Measured values from patent US8637484B2, “Modulation of growth hormone receptor expression and insulin-like growth factor expression” (Antisense Therapeutic Limited, priority 2003, dated 2014).

Assays:
[1] = system: serum insulin-like growth factor-I; assay: Serum IGF-I by radioimmunoassay, 1 week pilot study in Balb/C(a) mice; assay type: in vivo, mouse; settings: for % IGF-I reduction: 30 mg/kg once every 2 days, serum IGF-I at day 7 compared to saline control at day 7
Method: Forty male Balb/C(a) mice weighing 9 to 10 g were placed into cages, 4 animals per cage, and allowed to assimilate into their environment with new littermates ˜1 week prior (Day −7) to the commencement of 1 week study. Mice of this age would be at their maximum growth rate. Their body weights were measured and recorded every second day during this period. When mice weighed 11 g (day −2), a blood sample was collected under anesthesia as described below, and a serum IGF-I assay was performed to determine pre-treatment values and to aid in the assigning of mice to treatment groups in order to reduce animal variability. To obtain the blood sample, the animals were anaesthetized with pentobarbital (50 mg/kg i.p.) and non-fasting blood samples collected exactly 5 minutes later from the retrobulbar plexus through heparinized capillary tubes under light ether anesthesia. The 40 animals were placed into five groups with each group having a similar weight average and similar IGF-I average concentration for the trial.
Animals (n=8/group) were designated to the following five treatment groups:
Saline, antisense, mismatch control and octreotide samples were prepared, and coded for blinding. Animals were given a subcutaneous dose of saline every second day, and mismatch control or antisense with administration on days 0, 2, 4, 6. Animals were given twice daily doses of 25 μg octreotide. Animals were housed 4 per cage, for the duration of one week. They had access to a pre-determined quantity of standard mouse food and water at all times throughout the experiment. They were housed in a quiet, temperature- and humidity-maintained environment for the entirety of the study. At day 0 and before treatment on each day or second day, the animals had their body weight and food intake measured, enabling the correct dose of agent to be administered. The animals were monitored closely for any changes in fur, skin, eye, locomotion or other changes in behavior. No problems were observed. Every second day from day −7 to day 7 body weight and food intake were measured.
On day 7, one day after the last dose of antisense, and/or after the last octreotide dose, the animals were anaesthetized with pentobarbital (50 mg/kg i.p.) and non-fasting blood samples collected exactly 5 minutes later from the retrobulbar plexus through heparinized capillary tubes under light ether anesthesia (as on day −7 and 0).
At day −2 and day 7, serum IGF-I measurement was done by radioimmunoassay. Serum IGF-I level is the most widely used measure of growth hormone biological activity in human therapy. It is used to measure the efficacy of growth hormone antagonist treatments like Trovert, which block cells' responsiveness to excess growth hormone, and dopamine agonists and octreotide somatostatin […] drugs that block growth hormone secretion from the pituitary.

[2] = system: growth hormone receptor mRNA; assay: Growth hormone receptor mRNA levels in liver, two-week mouse study; assay type: in vivo; settings: 30 mg/kg
Method: (§1) A two-week study was done in similar fashion to the one-week study in Example 18, this time using ISIS 227446 at doses of 3, 5, 10, 20 and 30 mg/kg. The mismatch control was given at the same doses. Mice were treated with antisense compound or saline every other day for 14 days.
Growth hormone receptor mRNA levels in liver tissue samples from treated and untreated mice in this two-week study were assayed. The growth hormone receptor antisense inhibitor ISIS 227446 reduced growth hormone receptor mRNA levels in liver after the two-week study by 50% at the 20 mg/kg dose relative to saline control (p<0.001). The 30 mg/kg dose of ISIS 227446 yielded a 53% decrease in growth hormone receptor mRNA (p<0.0001). The mismatch control oligonucleotide ISIS 261303 (SEQ ID NO: 267), at 30 mg/kg, reduced growth hormone receptor mRNA levels by approximately 3%.

serum IGF-I [3] = assay: Serum IGF-I, two-week mouse study; assay type: in vivo; settings: for % decrease relative to 3 mg/kg ISIS 261303: day 14
Method: as §1
P-values were determined by t-test.

growth hormone receptor = assay: [125I] hGH specific binding assay on liver microsomal membranes of treated mice; assay type: in vivo, mouse
Method: Specific binding assays were carried out with liver tissue using iodinated human growth hormone [^125I] hGH.
Microsomal membrane preparations were obtained as follows. 400 mg of tissue powder was homogenized in cold homogenizing buffer (50 mM Tris/HCl, 250 mM sucrose, pH 7.4). This was centrifuged at 2000 rpm for 10 min at 3° C. and the supernatant was saved. This was centrifuged again at 15,000 rpm for 20 min. Pellets were resuspended in 0.5 ml of RRA buffer with inhibitor (50 mM Tris, 20 mM MgC12, pH 7.4). Microsomal preparation samples were stored at −80° C. until the specific binding assay.
The [^125I] hGH specific binding assay was done as follows. Four glass tubes were set up for each sample, two for (−), two for (+). Different sample and solutions were added in each tube as follows (i) 0.2 ml RRA buffer (50 mM Tris, 20 mM MgCl2, 0.1% BSA, pH 7.4); (ii) 0.1 ml membrane (1/2 or 1/4 dilution); (iii) 0.1 ml bGH (10 μg/ml) for the (+) tube or 0.1 ml RRA buffer for the (−) tube; and (iv) 0.1 ml [^125I]-hGH tracer.
Samples were incubated at 4° C. with shaking overnight. The reaction was stopped with 2.5 ml of cold RRA, and the sample centrifuged at 2800 rpm for 25 min at 4° C. Supernatant was aspirated and pellets counted using the γ-counter. The specific binding capacity was calculated as: CPM(−)-CPM(+) Protein content of the microsomal samples was determined by the BCA protein assay.

[4] = system: serum insulin-like growth factor-I; assay: Serum IGF-I by radioimmunoassay, 1 week pilot study in Balb/C(a) mice; assay type: in vivo, mouse
serum IGF-I [5] = settings: high doses, 12 week study, cited from earlier work
[6] = system: serum insulin-like growth factor-I; settings: patients with acromegaly; cited from earlier work
sIGF-1 = settings: cited from earlier work
[7] = 30 mg/kg every second day for one week, liver membranes

## ISIS 261303: negative control oligonucleotide, SEQ ID NO: 267, 8-base mismatch to ISIS 227446 (AGAGAGCTACCTAACTAACA; chemistry not given here) [reference compound]
[1]
  % IGF-I reduction: 21%
[1]; listed as Mismatch
  % IGF-I reduction: 20.98%
[1]; 30 mg/kg sc once every 2 days (days 0, 2, 4, 6)
  IGF-I (ng/ml) Day 7: 81.1 ± 19.16 ng/mL
[1]; pre-treatment value of the group given 30 mg/kg sc once every 2 days
  IGF-I (ng/ml) Day −2: 184.87 ± 55.6 ng/mL
[2]
  decrease in growth hormone receptor mRNA in liver: approximately 3%
Serum IGF-I [3]; 3 mg/kg every other day for 14 days
  Day 14 serum IGF-I: 184 ng/mL
Serum IGF-I [3]; 3 mg/kg
  % decrease relative to 3 mg/kg ISIS 261303: 0%
Serum IGF-I [3]; 5 mg/kg every other day for 14 days
  Day 14 serum IGF-I: 186 ng/mL
Serum IGF-I [3]; 5 mg/kg
  % decrease relative to 3 mg/kg ISIS 261303: 0%
Serum IGF-I [3]; 10 mg/kg every other day for 14 days
  Day 14 serum IGF-I: 174 ng/mL
Serum IGF-I [3]; 10 mg/kg
  % decrease relative to 3 mg/kg ISIS 261303: 5%
Serum IGF-I [3]; 20 mg/kg every other day for 14 days
  Day 14 serum IGF-I: 164 ng/mL
Serum IGF-I [3]; 20 mg/kg
  % decrease relative to 3 mg/kg ISIS 261303: 11%
Serum IGF-I [3]; 30 mg/kg every other day for 14 days
  Day 14 serum IGF-I: 130 ng/mL
Serum IGF-I [3]; 30 mg/kg
  % decrease relative to 3 mg/kg ISIS 261303: 29%
Growth hormone receptor; [7]
  Specific binding/mg protein (cpm) ¼ dilution: 8431 ± 2663 cpm
  Specific binding/mg protein (cpm) ½ dilution: 7090 ± 1877 cpm
Growth hormone receptor; 30 mg/kg sc every second day for one week
  growth hormone receptor levels (growth hormone binding activity), % of control (saline) group: no effect

## octreotide
[4]; 25 μg twice per day
  IGF-I (ng/ml) Day 7: 114.34 ± 41.36 ng/mL
[4]; pre-treatment value of the group given 25 μg/kg twice per day
  IGF-I (ng/ml) Day −2: 199.72 ± 44.47 ng/mL
Serum IGF-I [5]; 11 patients
  reduction of serum IGF-I: 45%
Serum IGF-I [5]
  reduction of glomerular filtration rate relative to placebo: 22-33%
[6]
  patients in whom treatment is effective: 60-65%
[1]; 2 doses per day at 25 μg each
  effect on serum IGF-I levels at day 7: no effect
sIGF-1; 5000 μg/day sc, maximally tolerated doses, 15 month study
  reduction of sIGF-1: 51%
sIGF-1; vs placebo of 42%
  ocular disease: 27%
